Test results taken from publication PMC8976910, “Novel oxadiazole derivatives as potent inhibitors of α-amylase and α-glucosidase enzymes: Synthesis, in vitro evaluation, and molecular docking studies” (Iranian Journal of Basic Medical Sciences, 2021).
≈ marks a conversion by molar mass, not a printed value.

How the values were obtained:
[1] = system: α-glucosidase; experiment: In vitro alpha-glucosidase inhibitory activity (p-NPG, 400 nm); type: biochemical; details: for % Inhibition (alpha-glucosidase): concentration not stated (test compounds 1-100 μg/ml); for IC50 µg/ml ± SEM (alpha-glucosidase inhibition): p-NPG substrate, 37 °C, test compounds 1-100 μg/ml
Method: The α-glucosidase inhibitory activity was determined according to a previously reported method with slight modifications([19]). […] A 500 μl solution was prepared by adding 10 μl of test compounds (1-100 μg/ml) and 490 μl of phosphate buffer (pH 6.9). 250 μl of 5mM p-nitrophenyl α-d-glucopyranoside (p-NPG) were added to this reaction mixture and incubated for 10 min at 37 °C. […] The α-glucosidase inhibitory activity was calculated as a measure of p-nitrophenol released from p-NPG. […] The percentage inhibition was calculated using the following formula; % Inhibition = (^Astandard^- Asample) / ^Astandard × 100.

[2] = target: T1, porcine pancreatic amylase (Sus scrofa, UniProt P00690); experiment: In vitro alpha-amylase inhibitory activity (starch/DNS, 540 nm); type: biochemical; details: for % Inhibition (alpha-amylase): concentration not stated (test compounds 1–100 μg/ml); for IC50: porcine pancreatic amylase, pH 6.8, 25 °C, test compounds 1–100 μg/ml, ± SEM, read-out: IC50 µg/ml ± SEM (alpha-amylase inhibition) (converted)
T1 sequence (P00690 16-511): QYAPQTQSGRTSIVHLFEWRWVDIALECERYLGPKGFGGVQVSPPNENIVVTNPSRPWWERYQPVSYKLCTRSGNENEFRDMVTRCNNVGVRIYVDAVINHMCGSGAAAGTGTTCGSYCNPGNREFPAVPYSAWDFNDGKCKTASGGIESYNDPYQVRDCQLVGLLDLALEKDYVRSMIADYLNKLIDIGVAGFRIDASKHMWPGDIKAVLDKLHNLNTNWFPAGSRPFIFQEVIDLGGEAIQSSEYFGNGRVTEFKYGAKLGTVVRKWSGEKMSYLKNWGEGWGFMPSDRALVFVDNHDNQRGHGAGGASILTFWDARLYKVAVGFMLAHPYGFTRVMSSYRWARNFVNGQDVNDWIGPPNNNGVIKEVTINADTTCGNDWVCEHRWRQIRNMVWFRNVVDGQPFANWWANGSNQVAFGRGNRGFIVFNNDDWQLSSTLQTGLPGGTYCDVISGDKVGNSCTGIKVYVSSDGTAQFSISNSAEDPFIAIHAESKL
Method: To this reaction mixture, 1% starch solution was added (500 μl in 0.2 mM phosphate buffer, pH 6.8) and incubated for an additional 10 min. 1 ml of DNS (di-nitro-salicylic-acid) color reagent was added to arrest the reaction. The reaction mixture was boiled for 10 min and then brought to ambient temperature. The absorbance of the resulting mixture was measured at 540 nm and the inhibitory activity was calculated using the following formula.
% Inhibition =(Astandard -Asample)/Astandard× 100
The IC50 was calculated using non-linear regression plot of % inhibition versus concentrations with the help of GraphPad Prism, version 6.0.

[3] = system: 3T3 (mouse fibroblast) cells; experiment: MTT assay for cytotoxicity analysis; type: cell-based; details: for cytotoxic effects against 3T3 (mouse fibroblast) cells, in words: MTT, 1.875-30 µM; for inhibition at 1.875 µM / inhibition at 3.75 µM / inhibition at 7.5 µM / inhibition at 15 µM / inhibition at 30 µM: Mus musculus, NIH3T3, 48 h, 3T3 cells, 48 hr, read-out: % Growth Inhibition
Method: Cytotoxic activity of compounds was evaluated in 96-well flat-bottomed microplates by using the standard MTT (3-[4, 5-dimethylthiazole-2-yl]-2, 5-diphenyl-tetrazolium bromide) colorimetric assay ([34]). For this purpose, 3T3 (mouse fibroblast, ATCC # CRL-1658, Lot # 59049195) cells were cultured in Dulbecco’s Modified Eagle Medium, supplemented with 5% fetal bovine serum (FBS), 100 IU/ml penicillin, and 100 µg/ml streptomycin in 75 cm^2 flasks, and kept in a 5% CO2 incubator at 37 °C. Exponentially growing cells were harvested, counted with a hemocytometer, and diluted with a particular medium. Cell culture with concentration of 5x10^4 cells/ml was prepared and introduced (100 µl/well) into 96-well plates. After overnight incubation, the medium was removed and 200 µl of fresh medium was added with various oxadiazole concentrations (30 µM, 15 µM, 7.5 µM, 3.75 µM, and 1.875 µM). After 48 hr, 200 µl MTT (0.5 mg/ml) was added to each well and incubated further for 4 hr. Subsequently, 100 µl of DMSO was added to each well. The extent of MTT reduction to formazan within cells was calculated by measuring the absorbance at 540 nm, using a microplate reader (Spectra Max Plus, Molecular Devices, CA, USA). The cytotoxicity was recorded as concentration causing 50% growth inhibition (IC50) for 3T3 cells. The percent inhibition was calculated by using the following formula;
% Inhibition=100-((mean of O.D of test compound-mean of O.D of negative control)/ (mean of O.D of positive control - mean of O.D of negative control) *100).
The results (% inhibition) were processed by using SoftMax Pro software (Molecular Device, USA).

SMILES | % Inhibition (alpha-glucosidase) [1] | IC50 µg/ml ± SEM (alpha-glucosidase inhibition) [1] | % Inhibition (alpha-amylase) [2] | IC50 [2] | melting point | cytotoxic effects against 3T3 (mouse fibroblast) cells, in words [3] | inhibition at 1.875 µM [3] | inhibition at 3.75 µM [3] | inhibition at 7.5 µM [3] | inhibition at 15 µM [3] | inhibition at 30 µM [3]
OCCSc1nnc(-c2ccccn2)o1 [4a(a), 2-{[5-(pyridin-2-yl)-1,3,4-oxadiazol-2-yl]sulfanyl} ethan-1-ol] | 97.2% | 15.45 ± 0.20 µg/mL (≈ 69.2 µM) | 9.42% | 1300 µM |  |  |  |  |  |  | 
OCCN1C[C@H](O)[C@@H](O)[C@H](O)[C@H]1CO [Miglitol, reference compound] | 98.9% | 11.47 ± 0.02 µg/mL (≈ 55.4 µM) |  |  |  |  |  |  |  |  | 
OCCSc1nnc(-c2cccnc2)o1 [4a(b), 2-{[5-(pyridin-3-yl)-1,3,4-oxadiazol-2-yl]sulfanyl} ethan-1-ol] |  | No effect | 26% | 831 µM |  |  |  |  |  |  | 
OCCSc1nnc(-c2ccncc2)o1 [4a(c), 2-{[5-(pyridin-4-yl)-1,3,4-oxadiazol-2-yl]sulfanyl} ethan-1-ol] | 16.3% | 299.11 ± 0.31 µg/mL (≈ 1340 µM) | 3.21% | 1770 µM | 180 °C |  |  |  |  |  | 

Now from value to compound, other results behind:

% Inhibition (alpha-glucosidase) [1] | IC50 µg/ml ± SEM (alpha-glucosidase inhibition) [1] | % Inhibition (alpha-amylase) [2] | IC50 [2] | melting point | SMILES | cytotoxic effects against 3T3 (mouse fibroblast) cells, in words [3] | inhibition at 1.875 µM [3] | inhibition at 3.75 µM [3] | inhibition at 7.5 µM [3] | inhibition at 15 µM [3] | inhibition at 30 µM [3]
40.2% | 68.02 ± 0.43 µg/mL (≈ 195 µM) | 40.2% | 279 µM | 170 °C | OCCSc1nnc(-c2cccc(I)c2)o1 [Compound 5e, 2-{[5-(3-iodophenyl)-1,3,4-oxadiazol-2-yl]sulfanyl} ethan-1-ol] |  |  |  |  |  | 
41.8% | 62.01 ± 0.92 µg/mL (≈ 260 µM) | 50.11% | 272 µM |  | OCCSc1nnc(-c2ccc(O)cc2)o1 [Compound 5b, 4-{5-[(2-hydroxyethyl)sulfanyl]-1,3,4-oxadiazol-2-yl} phenol] |  |  |  |  |  | 
98.14% | 12.27 ± 0.41 µg/mL (≈ 51.5 µM) | 56.41% | 252 µM | 165 to 170 °C | OCCSc1nnc(-c2ccccc2O)o1 [Compound 5a, 2-{5-[(2-hydroxyethyl)sulfanyl]-1,3,4-oxadiazol-2-yl} phenol] | negligible cytotoxic effects | 3% | 5% | 12% | 16% | 26.2%
9.04% | 273.06 ± 0.04 µg/mL (≈ 1010 µM) | 19.04% | 772 µM | 265 to 270 °C | OCCSc1nnc(-c2cc(O)c(O)c(O)c2)o1 [Compound 5f, 5-{5-[(2-hydroxyethyl)sulfanyl]-1,3,4-oxadiazol-2-yl} benzene-1,2,3-triol] |  |  |  |  |  | 
40.04% | 69.04 ± 0.27 µg/mL (≈ 269 µM) | 49.41% | 267 µM | 165 °C | OCCSc1nnc(-c2ccccc2Cl)o1 [Compound 5c, 2-{[5-(2-chlorophenyl)-1,3,4-oxadiazol-2-yl]sulfanyl} ethan-1-ol] |  |  |  |  |  | 
39.7% | 73.61 ± 0.02 µg/mL (≈ 244 µM) | 43.6% | 298 µM | 186 to 190 °C | OCCSc1nnc(-c2cccc(Br)c2)o1 [Compound 5d, 2-{[5-(3-bromophenyl)-1,3,4-oxadiazol-2-yl]sulfanyl} ethan-1-ol] |  |  |  |  |  | 
36.16% | 80.8 ± 0.52 µg/mL (≈ 364 µM) | 92.16% | 58.9 µM | 207 to 210 °C | OCCSc1nnc(-c2ccccc2)o1 [Compound 5g, 2-[(5-phenyl-1,3,4-oxadiazol-2-yl)sulfanyl] ethan-1-ol] | negligible cytotoxic effects | ~1.5% | 3% | 8% | 10% | 19.6%
